# Patent US8415357B2 (Canbas Co., Ltd., priority 2007, dated 2013)
# Tested on: Jurkat cells
# Assay: Adaptation to G2 cell cycle arrest (G1 increment) in X-ray pre-arrested Jurkat cells, flow cytometry
# Format: cell-based, human
# Conditions: Homo sapiens, Jurkat, 24 h, Table 1; concentration causing half-maximal increase of % cells in G1 phase (G1 increment); Jurkat pre-arrested by 10 Gy X-ray, 24 hours with compound
# Method: Phenotype-based screening was used to measure the ability of compounds of the invention to cause adaptation to G2 cell cycle arrest in G2-arrested cells. Adaptation to G2 cell cycle arrest and re-entry into the cell cycle can result in death of the previously G2-arrested cell, or suppression (inhibition) of further proliferation of the previously G2-arrested cell. In a non-limiting embodiment, the ability to cause adaptation to G2 cell cycle arrest was measured by contacting cells in which G2 arrest had been induced by irradiation (e.g., gamma (γ) radiation or X-ray radiation), with compounds of the invention at various concentrations and, for each compound at each concentration, determining the percentage of cells that escaped G2 arrest and re-entered the cell cycle, by determining the percentage of cells in G1 phase. The IC50 value for each compound was calculated as the dosage (usually in μM) that caused half-maximal increase of the percentage of cells in G1 phase (the G1 increment) measured for that compound. Certain invention compounds were initially identified by phenotype-based screening of small molecule libraries for activity against G2-arrested cells as described above.
# Jurkat cells (a human T cell lymphoma-derived cell line) were arrested at the G2 phase by X-ray irradiation at 10 Gy, and cultured for 24 hours in 10% fetal calf serum (FCS)/RPMI1640 at 37° C. with 5% CO2/air. (FCS was from Equitech-Bio, Kerrville, Tex., and RPMI1640 was from Sigma-Aldrich, St. Louis, Mo.) Test compounds were added to the medium at the indicated doses, and the cells were cultured under the conditions described above, for an additional 24 hours before harvesting.
# Harvested cells were stained with Krishan's buffer (0.1% sodium citrate, 50 μg/ml propidium iodide, 20 μg/ml RNase A, 0.5% Nonidet P-40) and analyzed by flow cytometry (BD Biosciences, Franklin Lakes, N.J.) to identify the cell stage of each cell in the sample. Cells in G1 phase were identified by having […] (2N) DNA content.
# The IC50 value for each compound was calculated as the dosage showing half maximal activity to induce the increase of the percentage of cells in G1 phase (the G1 increment). IC50 values were used to measure the activity of compounds and to determine structure-activity relationships.
# Pre-arrested Jurkat cells were prepared as described in Example 1. Briefly, Jurkat cells were subjected to X-ray irradiation at a dose of 10 Gy, and cultured for 24 hours in 10% fetal calf serum (FCS)/RPMI1640 at 37° C. with 5% CO2/air, after which time cells were exposed to various concentrations of test compounds, and cultured under the conditions described above for an additional 24 hours before harvesting. Harvested cells were stained with Krishan's buffer (0.1% sodium citrate, 50 μg/ml propidium iodide, 20 μg/ml RNase A, 0.5% Nonidet P-40) and analyzed by flow cytometry (BD Biosciences, Franklin Lakes, N.J.) to identify the cell stage of each cell in the sample. Cells in G1 phase were identified by having […] (2N) DNA content.
# The IC50 value for each compound was calculated as the dosage (concentration in μM) that caused half-maximal increase of the percentage of cells in G1 phase (the G1 increment) measured for that test compound. Table 1 below presents the structure, mass, 1H NMR values, and […] values for representative compounds.
# The IC50 value for each compound was calculated as the dosage (concentration in μM) that caused half-maximal increase of the percentage of cells in G1 phase (the G1 increment) measured for that test compound. Table 2 below presents structures, IUPAC name, molecular formula, ID number (“SCID”), mass, 1H NMR values, and IC50 values for representative compounds. Table 3 presents structures, IUPAC name, molecular formula, ID number (“SCID”), mass, 1H NMR values, and IC50 values for further representative compounds.
row,Structure (SMILES),IC50 [nM]
1,CC1=C(C)C(=O)N(Nc2ccc(C(C)(C)C)cc2)C1=O [Compound S00479],2500
2,CC1=C(C)C(=O)N(Nc2nc3ccc(Cl)cc3s2)C1=O [Compound S00590],5000
3,CC1=C(C)C(=O)N(Nc2ccc(C)c(C(F)(F)F)c2)C1=O [Compound S00697],2500
4,CC1=C(C)C(=O)N(Nc2cc(Cl)ccc2C)C1=O [Compound S00319],10000
5,CC1=C(C)C(=O)N(Nc2nc3c(Cl)cccc3s2)C1=O [Compound S00756],1250
6,CC1=CC(=O)N(Nc2ccc(C(F)(F)F)c(Cl)n2)C1=O [Compound S00333],15000
7,CC1=C(C)C(=O)N(N(C)c2ccc(C(F)(F)F)c(Cl)n2)C1=O [Compound S00170],120
8,"CC1=C(C)C(=O)N(Nc2ccc(Cl)c3ccccc23)C1=O [Compound S00738, 1-[(4-chloronaphthyl)amino]-3,4-dimethylazoline-2,5-dione]",630
9,CC1=C(C)C(=O)N(Nc2cc(C(C)(C)C)ccc2Br)C1=O [Compound S00649],10000
10,CC1=C(C)C(=O)N(Cc2ccc(Cl)c(C(F)(F)F)c2)C1=O [Compound S00201],10000
11,CC1=C(C)C(=O)N(Cc2ccc(C(F)(F)F)c(Cl)c2)C1=O [Compound S00513],5000
12,CC1=C(C)C(=O)N(Nc2nc(Cl)ccc2C(F)(F)F)C1=O [Compound S00108],20000
13,"CC1=C(C)C(=O)N(Nc2ccc3cccc(Cl)c3n2)C1=O [Compound S00585, 1-[(8-chloro(2-quinolyl))amino]-3,4-dimethylazoline-2,5-dione]",450
14,CC1=C(C)C(=O)N(Nc2nc3ccc(F)cc3s2)C1=O [Compound S00454],4000

# Same assay, conditions: Homo sapiens, Jurkat, 24 h, Table 2; concentration causing half-maximal increase of % cells in G1 phase (G1 increment); Jurkat pre-arrested by 10 Gy X-ray, 24 hours with compound
row,Structure (SMILES),IC50 [nM]
1,"CC1=C(C)C(=O)N(Nc2cc(CN3CCN(C(=O)OCc4ccccc4)CC3)c3ccc(Br)cc3n2)C1=O [Compound S01683, Phenylmethyl4-({2-[(3,4-dimethyl-2,5-dioxoazolinyl)amino]-7-bromo-4-quinolyl}methyl)piperazinecarboxylate]",625
2,CC1=C(C)C(=O)N(Nc2cc(Cl)c(C(F)(F)F)c(-c3ccccc3)n2)C1=O [Compound S01734],450
3,"CC1=C(C)C(=O)N(Nc2cc(CNC3CCN(C(=O)OC(C)(C)C)CC3)c3ccc(Br)cc3n2)C1=O [Compound S01862, tert-butyl 4-[({2-[(3,4-dimethyl-2,5-dioxoazolinyl)amino]-7-bromo-4-quinolyl}methyl)amino]piperidinecarboxylate]",937
4,"CC1=C(C)C(=O)N(Nc2cc(Cl)nc(-c3ccccc3)c2C(F)(F)F)C1=O [Compound S01688, 1-{[6-chloro-2-phenyl-3-(trifluoromethyl)(4-pyridyl)]amino}-3,4-dimethylazoline-2,5-dione]",625
5,"CC1=C(C)C(=O)N(Nc2cccc(-c3cccc(C(F)(F)F)c3)n2)C1=O [Compound S01691, 3,4-dimethyl-1-({6-[3-(trifluoromethyl)phenyl](2-pyridyl)}amino)azoline-2,5-dione]",625
6,"CC1=C(C)C(=O)N(Nc2cc(CN3CCN(C4CCN(C(=O)OC(C)(C)C)CC4)CC3)c3ccc(Br)cc3n2)C1=O [Compound S01928, tert-butyl 4-[4-({2-[(3,4-dimethyl-2,5-dioxoazolinyl)amino]-7-bromo-4-quinolyl}methyl)piperazinyl]piperidinecarboxylate]",938
7,"CC1=C(C)C(=O)N(Nc2ccc(C(F)(F)F)c(-c3cccc(Cl)c3)n2)C1=O [Compound S01474, 1-{[6-(3-chlorophenyl)-5-(trifluoromethyl)(2-pyridyl)]amino}-3,4-dimethylazoline-2,5-dione]",625
8,"COc1cccc(C(=O)N2CCN(Cc3cc(NN4C(=O)C(C)=C(C)C4=O)nc4cc(Br)ccc34)CC2)c1 [Compound S01925, 1-{[7-bromo-4-({4-[(3-methoxyphenyl)carbonyl]piperazinyl}methyl) (2-quinolyl)]amino}-3,4-dimethylazoline-2,5-dione]",156
9,"CC1=C(CCC(=O)NC(C)(C)C)C(=O)N(Nc2ccc(C(F)(F)F)c(Cl)n2)C1=O [Compound S01758, N-(tert-butyl)-3-(1-{[6-chloro-5-(trifluoromethyl)(2-pyridyl)]amino}-4-methyl-2,5-dioxoazolin-3-yl)propanamide]",156
10,"CC1=C(C)C(=O)N(Nc2cc(CN3CCC(NC(=O)OC(C)(C)C)C3)c3ccc(Br)cc3n2)C1=O (stereo not shown) [Compound S01864, N-[1-({2-[(3,4-dimethyl-2,5-dioxoazolinyl)amino]-7-bromo(4-quinolyl)}methyl)pyrrolidin-3-yl] (tert-butoxy)carboxamide]",468
11,"CC1=C(C)C(=O)N(Nc2cc(Cl)c3ccc(Br)cc3n2)C1=O [Compound S01311, 1-[(7-bromo-4-chloro(2-quinolyl))amino]-3,4-dimethylazoline-2,5-dione]",300
12,CC1=C(C)C(=O)N(N(C)c2ccc(C(F)(F)F)c(Cl)n2)C1=O [Compound S00170],120
13,"CC1=C(C)C(=O)N(Nc2cc(CN3CCN(C(=O)c4ccccc4)CC3)c3ccc(Br)cc3n2)C1=O [Compound S01699, 1-[(7-bromo-4-{[4-(phenylcarbonyl)piperazinyl]methyl}(2-quinolyl))amino]-3,4-dimethylazoline-2,5-dione]",625
14,"CC1=C(C)C(=O)N(Nc2ccc(Cl)c3ccccc23)C1=O [Compound S00738, 1-[(4-chloronaphthyl)amino]-3,4-dimethylazoline-2,5-dione]",625
15,"CC1=C(C)C(=O)N(Nc2cc(Cl)c3ccc(Cl)c(Cl)c3n2)C1=O [Compound S01078, 3,4-dimethyl-1-[(4,7,8-trichloro(2-quinolyl))amino]azoline-2,5-dione]",78
16,"CC1=C(CO)C(=O)N(Nc2ccc(C(F)(F)F)c(Cl)n2)C1=O [Compound S01470, 1-{[6-chloro-5-(trifluoromethyl)(2-pyridyl)]amino}-3-(hydroxymethyl)-4-methylazoline-2,5-dione]",200
17,"CC1=C(C)C(=O)N(Nc2ccc3cccc(Cl)c3n2)C1=O [Compound S00585, 1-[(8-chloro(2-quinolyl))amino]-3,4-dimethylazoline-2,5-dione]",300
18,"CC1=C(C)C(=O)N(Nc2cc(CO)c3ccc(Br)cc3n2)C1=O [Compound S01037, 1-{[7-bromo-4-(hydroxymethyl)(2-quinolyl)]amino}-3,4-dimethylazoline-2,5-dione]",625
19,"CC1=C(C)C(=O)N(Nc2cc(CN3CCN(C(=O)c4ccc(C)cc4C)CC3)c3ccc(Br)cc3n2)C1=O [Compound S01800, 1-{[4-({4-[(2,4-dimethylphenyl)carbonyl]piperazinyl}methyl)-7-bromo (2-quinolyl)]amino}-3,4-dimethylazoline-2,5-dione]",625
20,"CC1=C(CCC(C)C)C(=O)N(Nc2ccc(C(F)(F)F)c(Cl)n2)C1=O [Compound S01554, 1-{[6-chloro-5-(trifluoromethyl)(2-pyridyl)]amino}-4-methyl-3-(3-methylbutyl)azoline-2,5-dione]",120
21,"COc1ccc(-c2cc(NN3C(=O)C(C)=C(C)C3=O)nc3c(Cl)cccc23)cc1 [Compound S01191, 1-{[8-chloro-4-(4-methoxyphenyl)(2-quinolyl)]amino}-3,4-dimethylazoline-2,5-dione]",625

# Same assay, conditions: Homo sapiens, Jurkat, 24 h, Table 3; concentration causing half-maximal increase of % cells in G1 phase (G1 increment); Jurkat pre-arrested by 10 Gy X-ray, 24 hours with compound
row,Structure (SMILES),IC50 [nM]
1,"CC1=C(CC(=O)OC(C)(C)C)C(=O)N(Nc2ccc(C(F)(F)F)c(Cl)n2)C1=O [Compound S02225, tert-butyl 2-(1-{[6-chloro-5-(trifluoromethyl) (2-pyridyl)]amino}-4-methyl-2,5-dioxoazolin-3-yl)acetate]",30
2,"CCOCCC1=C(C)C(=O)N(Nc2ccc(C(F)(F)F)c(Cl)n2)C1=O [Compound S03960, 1-{[6-chloro-5-(trifluoromethyl)(2-pyridyl)]amino}-3-(2-ethoxyethyl)-4-methylazoline-2,5-dione]",40
